Data set [1] can be described thus: Pharmacokinetic analysis, plasma and brain levels. The class given is in vivo. The conditions noted are these: male, Crl:CD1 (ICR), mouse, ip, ICR mice, n = 3. The procedure: Male Crl:CD1 (ICR) mice from […], Japan (8 weeks old, n = 3) received a single intraperitoneal injection of S2172 at 30 mg/kg in 5 mL/kg of 15% DMSO/17.5% Cremophor EL/8.75% Ethanol/8.75% HCO-40/50% PBS. Serial blood sampling was conducted from the jugular vein at 0.25, 0.5, 1, 2, 4, and 6 hr time points. At 0.5 h after injection, mice were euthanized, underwent hemoperfusion, and their brain tissue was harvested, homogenized and diluted 4-fold with water. Blood and brain homogenate samples were treated with acetonitrile and centrifuged. The supernatant solution was used for drug level measurement by LC/MS/MS. Pharmacokinetic parameters were calculated using Moment method analysis.

The subject of a further data set is GSC1228. Briefly: Stemness / differentiation marker expression (qPCR, western blot). The conditions noted are these: GSC1228, 5 μM, 96 h. Format: cell-based. The text has this: Super-enhancers consist of enhancer clusters with abundant binding of transcription factors and are highly enriched with H3K27ac marks. The H3K4me2 increased regions included the MYC locus and H3K4me2 de novo regions comprised Nestin and SOX2 loci (Fig. 2F, Supplementary Fig. S5A). These regions were also identified as super-enhancers in GSCs using data from our previous study (Fig. 2F). Compared to the large increase in H3K4me2 in these regions, changes in H3K4me3 were subtle after S2172 treatment (only 2582 regions were acquired modification) (Fig. 2C). Increasing the me2/me3 ratio at H3K4 is associated with reduced gene expression.
A mRNA expression of stem cell marker genes following 96 h treatment of GSC1228 with S2172 (5 μM). The y-axis indicates the expression change relative to DMSO-treated cells. Error bar indicates the SD. *P < 0.05. B Left panel, western blot analysis of MYC, Nestin, and SOX2 after treatment of GSC1228 with either DMSO or S2172 (5 μM) for 96 h. β-actin (ACTB) was used as the loading control. Right panel, Quantification of band signal intensities from the western blot. C mRNA expression of the differentiation marker gene, GFAP, following treatment of GSC1228 with S2172 (5 μM) for 96 h. The y-axis indicates the expression change relative to DMSO-treated cells. Error bar indicates the SD. D PARP cleavage ratio after treatment of GSC1228, GSC222, and GSC316 with S2172 (5 μM). The ratio was calculated by dividing the cleaved-PARP band intensity by the full length-PARP band intensity. Error bar indicates the SD. *P < 0.05. E Representative Western blot results of RAPR after treatment of GSC1228, GSC222, and GSC316 with either DMSO or S2172 (5 μM) for 96 h. The full length-PARP band (106 kDa) and cleaved PARP band (89 kDa) are shown. β-actin (ACTB) was used as the loading control. n = 4. […]
instructions. For GSC cells, the CellTiter-Glo 3D Viability Assay (Promega, Madison, WI, USA) was used to measure the living cells. All proliferation experiments were repeated […]
The density of bands was quantified using ImageJ software (https://imagej.nih.gov/ij/). […]
On the technique in general: In qPCR the cycle at which signal appears reflects the starting amount.

In a further data set the target is T1, MAO-A (Homo sapiens, UniProt P21397).
T1 sequence (P21397 1-527): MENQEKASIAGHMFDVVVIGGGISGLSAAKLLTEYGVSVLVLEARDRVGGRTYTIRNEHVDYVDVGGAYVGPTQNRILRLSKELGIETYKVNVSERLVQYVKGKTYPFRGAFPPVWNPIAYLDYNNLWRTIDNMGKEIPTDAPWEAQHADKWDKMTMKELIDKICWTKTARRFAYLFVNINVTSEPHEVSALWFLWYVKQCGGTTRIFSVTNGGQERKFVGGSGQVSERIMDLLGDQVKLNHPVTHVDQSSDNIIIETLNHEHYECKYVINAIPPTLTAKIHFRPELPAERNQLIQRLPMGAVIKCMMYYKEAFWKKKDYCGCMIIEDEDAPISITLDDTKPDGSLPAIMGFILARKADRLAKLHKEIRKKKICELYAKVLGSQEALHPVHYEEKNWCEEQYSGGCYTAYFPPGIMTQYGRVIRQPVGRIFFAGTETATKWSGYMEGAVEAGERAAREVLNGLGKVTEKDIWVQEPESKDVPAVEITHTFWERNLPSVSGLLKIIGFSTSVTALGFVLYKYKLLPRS
Briefly: Enzyme inhibition assay (in vitro peroxidase assay) against MAO-A.

Setting [2] is: plasma, single intraperitoneal injection 30 mg/kg.

The structures appear in SMILES notation. Where two headings read alike, the source gives them in different places.

In general, Cmax refers to the peak of the concentration-time curve. In general, Tmax refers to the time at which the peak concentration occurs. As a reminder, the half-life is how long it takes for the measured level to halve. A high value points to slow decline. By Ki is commonly meant the equilibrium dissociation constant of an inhibitor or competing ligand from its target. A lower Ki goes with tighter binding.

Experimental for MAO-A: Enzyme inhibition assays against LSD1, LSD2, MAO-A, and MAO-B were performed as previously described [25]. Technical replicates, n = 3.

As for `NC1CCC(NC2CC2c2cc(F)cc(F)c2OCc2ccccc2)CC1` (stereo not drawn) [S2172], the concentration at 0.5 hr in data set [1] (brain, single intraperitoneal injection 30 mg/kg, read-out: Brain concentration at 0.5 hr) came to 1520 ± 140 nM. Also, the Kp at 0.5 h in data set [1] (brain/plasma, 0.5 hr after single intraperitoneal injection 30 mg/kg, read-out: Brain/plasma ratio) is 2.06 ± 0.39. In data set [1] (setting [2]), the highest level (Cmax) was 1200 ± 120 nM, the Tmax was found to be 0.25 h and the half-life is 4.98 ± 1.64 h. The AUC(0-t) in data set [1] (plasma, single intraperitoneal injection 30 mg/kg, read-out: AUC0–6 h) was 1.11 ± 0.08 µM·h. In addition, the concentration at 0.5 hr in data set [1] (plasma, single intraperitoneal injection 30 mg/kg, read-out: Plasma concentration at 0.5 hr) amounted to 750 ± 90 nM. In the data set with GSC1228, the “mRNA level of stemness marker genes MYC, Nestin, SOX2” value is reported as “significantly downregulated”; the “protein level of MYC, Nestin, SOX2” value is “tended to be downregulated”; the “transcription of astrocytic marker GFAP” value is reported as “did not transcriptionally induce”. This molecule also came in with a Ki on MAO-A of over 250 µM. Further, the “Inhibition of MAO-A (in words)” value on MAO-A (in vitro peroxidase assay) is “not inhibited”.

The values above are taken from PMC11645267, “Novel pharmacologic inhibition of lysine-specific demethylase 1 as a potential therapeutic for glioblastoma” (Cancer Gene Therapy, 2024).
